Test [1] addresses T1, 5-hydroxytryptamine (HT1A) receptor (Bos taurus, UniProt F6Q2H9).
T1 construct: from tissue; host or cells: bovine brain homogenate
T1 sequence (F6Q2H9 1-422): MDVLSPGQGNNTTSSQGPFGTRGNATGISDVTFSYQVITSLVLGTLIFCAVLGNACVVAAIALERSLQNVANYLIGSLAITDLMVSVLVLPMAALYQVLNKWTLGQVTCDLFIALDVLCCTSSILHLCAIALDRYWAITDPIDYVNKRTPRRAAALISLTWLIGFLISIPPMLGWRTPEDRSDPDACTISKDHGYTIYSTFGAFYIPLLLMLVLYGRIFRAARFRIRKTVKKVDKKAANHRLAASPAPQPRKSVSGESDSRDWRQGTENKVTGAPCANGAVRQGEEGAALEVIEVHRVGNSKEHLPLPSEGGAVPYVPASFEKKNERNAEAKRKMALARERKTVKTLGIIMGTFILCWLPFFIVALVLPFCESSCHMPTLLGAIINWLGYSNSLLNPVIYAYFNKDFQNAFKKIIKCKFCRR
As to the kind of experiment: Inhibition of 3H-8-OH-DPAT binding in a bovine brain homogenate (5HT1A binding).
Source text: Binding: Inhibition of 3H-8-OH-DPAT binding in a bovine brain homogenate. Potency is given as nanomole (nM) dose required to inhibit 50% of DPAT binding (IC50). This test measures ability to bind to 5-hydroxytryptamine (HT1A ) receptor.

For a further test, the target named is dopamine D2 receptors (Rattus norvegicus, UniProt P61169). The test can be described thus: biochemical. The test is classed as binding. The text has this: For Dopamine (D2): Inhibition of 3H-raclopride binding in rat striata homogenate. […] This test measures the ability to bind to dopamine D2 receptors.
Test [2] can be described thus: Hypothermia in mice after subcutaneous injection. The test is classed as in vivo. The settings on record: dose required to depress temperature (2° C.) in two of four mice, Spearman-Karber, 20 min; for ED50: Mus musculus, sc.
Procedure: Hypothermia: Starting with a dose of 30 mg/kg, four mice are injected subcutaneously with test compound. Twenty minutes later, the number of animals whose body temperature has decreased by 2° C. or more are counted. […] The time for last statistically significant drug affect on mean body temperature is indicated in minutes. […] Potency is given as mg/kg ED50 (dose required to depress temperature in two of four mice) as measured by Spearman-Karber statistics.
[3] abbreviates: 5HT1A Binding IC50, 3H-8-OH-DPAT.
Setting [4] is: 3H-8-OH-DPAT, read-out: 5HT1A Binding IC50.
Where [5] appears, read: 3H-raclopride, rat striata homogenate, read-out: Dopamine D2-Receptor Binding IC50.
The mark [6] stands for this setting: mice, subcutaneous, read-out: Hypothermia ED50.
Setting [7] is: read-out: Hypothermia ED50, mice, subcutaneous.

Where a name gives a salt, the structure may show the parent alone. Read-outs that look alike come from different tables or passages of the source. Where only a bound is given, the exact number is not on record here.

Chain of dopamine D2 receptors (P61169 whole entry): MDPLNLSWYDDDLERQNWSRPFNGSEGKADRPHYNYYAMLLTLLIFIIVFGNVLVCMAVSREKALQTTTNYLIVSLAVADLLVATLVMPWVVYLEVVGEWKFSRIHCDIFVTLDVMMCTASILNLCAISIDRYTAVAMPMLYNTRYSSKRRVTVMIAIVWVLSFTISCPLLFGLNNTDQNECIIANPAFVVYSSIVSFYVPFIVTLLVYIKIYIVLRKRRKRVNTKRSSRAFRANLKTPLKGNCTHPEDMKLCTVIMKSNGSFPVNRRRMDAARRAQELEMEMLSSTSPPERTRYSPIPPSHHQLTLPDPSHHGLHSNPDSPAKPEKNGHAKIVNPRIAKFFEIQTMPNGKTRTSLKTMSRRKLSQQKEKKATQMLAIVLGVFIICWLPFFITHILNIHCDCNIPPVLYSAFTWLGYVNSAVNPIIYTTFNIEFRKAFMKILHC

A word on the IC50: it is the concentration that gives 50% inhibition. Turning to `C=CCn1c(C(=O)OC)cc2c3c(ccc21)OCC(CN1CCC2(CC1)C(=O)NCN2c1ccccc1)O3` (stereo not shown) [XIn, 7H-1,4-Dioxino(2,3-e)indole-8-carboxylic acid, 2,3-dihydro-2-((4-oxo-1-phenyl-1,3,8-triazaspiro(4.5)dec-8-yl)methyl)-7-(2-propenyl)-, methyl ester], in test [1] (setting [3]), the IC50 came to 268 nM. Regarding `O=C(O)c1cc2c3c(ccc2[nH]1)OCC(CN1CCC2(CC1)C(=O)NCN2c1ccccc1)O3` (stereo not shown) [b'], the results for the IC50 (in test [1] (setting [3]); on dopamine D2 receptors) were 24.7 nM and 52.2 nM, respectively. The “Hypothermia ED50” value in test [2] (mice, subcutaneous) came to 30.0 mg/kg. Usually ED50 stands for the dose at which the effect has come halfway, by size or by number of responders. For the molecule `COC(=O)c1cc2c3c(ccc2[nH]1)OCC(CNCCCc1ccccc1)O3` (stereo not shown) [XIj, 7H-1,4-Dioxino(2,3-e)indole-8-carboxylic acid, 2,3-dihydro-2-((3-phenylpropyl)amino)methyl)-, methyl ester, monohydrochloride], the IC50 in test [1] (setting [4]) turned out to be 4 nM; at dopamine D2 receptors (setting [5]) it was 54.6 nM. In addition, in test [2] (setting [6]), the ED50 stood at 1.3 mg/kg.

Regarding `O=C(OCc1ccccc1)c1cc2c3c(ccc2[nH]1)OCC(CN1CCC2(CC1)C(=O)NCN2c1ccccc1)O3` (stereo not shown) [XIf, 7H-1,4-Dioxino(2,3-e)indole-8-carboxylic acid, 2,3-dihydro-2-((4-oxo-1-phenyl-1,3,8-triazaspiro(4.5)dec-8-yl)methyl)-, phenylmethyl ester], the IC50 in test [1] (setting [3]) worked out at 8.4 nM; on dopamine D2 receptors (setting [5]) it was 190 nM. Also, the ED50 in test [2] (setting [7]) stood at 17.3 mg/kg. The molecule `COC(=O)c1cc2c3c(ccc2[nH]1)OCC(CN1CCC(Nc2ccccc2)(C(N)=O)CC1)O3` (stereo not shown) [XIi, 7H-1,4-Dioxino(2,3-e)indole-8-carboxylic acid, 2-((4(aminocarbonyl)-4-(phenylamino)-1-piperidinyl)methyl)-2,3-dihydro-, methyl ester] showed an IC50 in test [1] (setting [3]) of 79.3 nM. `O=C(O)c1cc2c3c(ccc2[nH]1)OCC(CN1CCC2(CC1)C(=O)NCN2c1ccccc1)O3` (stereo not shown) [XIb] came in with an IC50 in test [1] (setting [3]) of 36.3 nM. The ED50 in test [2] (setting [7]) worked out at 17.3 mg/kg. `CCOC(=O)C1CCN(CC2COc3ccc4[nH]c(C(=O)OC)cc4c3O2)CC1` (stereo not shown) [XIh, 7H-1,4-Dioxino(2,3-e)indole-8-carboxylic acid, 2-((4-(ethoxycarbonyl-1-piperidinyl)methyl)-2,3-dihydro-, methyl ester, monohydrochloride]: the values for the IC50 (in test [1] (setting [4]); on dopamine D2 receptors (setting [5])) were 9.6 nM and 147 nM, respectively. For the same molecule, the ED50 in test [2] (setting [6]) is > 30 mg/kg.

`COC(=O)c1cc2c3c(ccc2[nH]1)OCC(CN1CCC(n2c(=O)[nH]c4ccccc42)CC1)O3` (stereo not shown) [XIg, 7H-1,4-Dioxino(2,3-e)indole-8-carboxylic acid, 2-((4-(2,3-dihydro-2-oxo-1H-benzimidazol-1-yl)-1-piperidinyl)methyl)-2,3-dihydro-, methyl ester, monohydrochloride] came in with an IC50 in test [1] (setting [3]) of 3.7 nM. On to `COC(=O)C1Cc2c(ccc3c2OC(CN2CCC4(CC2)C(=O)NCN4c2ccccc2)CO3)N1` (stereo not shown) [a', 7H-1,4-Dioxino(2,3-e)indole-8-carboxylic acid 2,3,8,9-tetrahydro-2-((4-oxo-1-phenyl-1,3,8-triazaspiro(4.5)dec-8-yl)methyl)-, methyl ester], for which the ED50 in test [2] (setting [7]) came to 17.3 mg/kg. For the molecule `N#Cc1cc2c3c(ccc2[nH]1)OCC(CN1CCC2(CC1)C(=O)NCN2c1ccccc1)O3` (stereo not shown) [XId, 7H-1,4-Dioxino(2,3-e)indole-8-carbonitrile, 2,3-dihydro-2-((4-oxo-1-phenyl-1,3,8-triazaspiro(4.5)dec-8-yl)methyl)-], the IC50 was 0.17 nM in test [1] (setting [3]) and 1.53 nM on dopamine D2 receptors. For the same molecule, in test [2] (setting [7]), the ED50 was determined as 0.01 mg/kg. In test [1] (setting [3]), `COC(=O)c1cc2c3c(ccc2[nH]1)OCC(CN1CCC2(CC1)C(=O)NCN2c1ccccc1)O3` (stereo not shown) [XIa, 2,3-dihydro-2-((4-oxo-1-phenyl-1,3,8-triazaspiro(4.5)-dec-8-yl)methyl)-7H-1,4-dioxino(2,3-e)indol-8-methyl ester] gave an IC50 of 0.47 nM. The ED50 in test [2] (setting [7]) worked out at 30 mg/kg.

For `O=C1NCN(c2ccccc2)C12CCN(CC1COc3ccc4[nH]ccc4c3O1)CC2` (stereo not shown) [XIm, 1,3,8-Triazaspiro(4.5)decan-4-one, 8-((2,3-dihydro-7H-1,4-dioxino(2,3-e)indol-2-yl)methyl)-1-phenyl], the results for the IC50 (in test [1] (setting [3]); against dopamine D2 receptors) were 1 nM and 0.13 nM, respectively. In test [1] (setting [3]), `O=C1NCN(c2ccccc2)C12CCN(CC1COc3ccc4[nH]c(CO)cc4c3O1)CC2` (stereo not shown) [XIl, 1,3,8-Triazaspiro(4.5)decan-4-one, 8-((2,3-dihydro-8-(hydroxymethyl)-7H-1,4-dioxino(2,3-e)indol-2-yl)methyl)-1-phenyl-] displayed an IC50 of 2.3 nM. On the same count and under the same terms, the result for `NC(=O)c1cc2c3c(ccc2[nH]1)OCC(CN1CCC2(CC1)C(=O)NCN2c1ccccc1)O3` (stereo not shown) [XIc, 7H-1,4-Dioxino(2,3-e)indole-8-carboxamide, 2,3-dihydro-2-((4-oxo-1-phenyl-1,3,8-triazaspiro(4.5)dec-8-yl)methyl)-] reads 0.29 nM. For the molecule `Cl.O=C(NCCCc1ccccc1)c1cc2c3c(ccc2[nH]1)OCC(CNCCCc1ccccc1)O3` (stereo not shown) [XIk, 7H-1,4-Dioxino(2,3-e)indole-8-carboxamide, 2,3-dihydro-N-(3-phenylpropyl)-2-(((3-phenylpropyl)amino)methyl)-, monohydrochloride], the IC50 in test [1] (setting [4]) came to 26 nM; at dopamine D2 receptors (setting [5]), 350 nM. Moreover, the ED50 in test [2] (setting [6]) was > 30 mg/kg.

With `CCCCOC(=O)c1cc2c3c(ccc2[nH]1)OCC(CN1CCC2(CC1)C(=O)NCN2c1ccccc1)O3` (stereo not shown) [XIe, 7H-1,4-Dioxino(2,3-e)indole-8-carboxylic acid, 2,3-dihydro-2-((4-oxo-1-phenyl-1,3,8-triazaspiro(4.5)dec-8-yl)methyl)-, butyl ester], in test [1] (setting [3]), the IC50 worked out at 13.5 nM.

For the molecule `C=CCN1CN(c2ccccc2)C2(CCN(CC3COc4ccc5[nH]c(C(=O)OC)cc5c4O3)CC2)C1=O` (stereo not shown) [XIp, 7H-1,4-Dioxino(2,3-e)indole-8-carboxylic acid, 2,3-dihydro-2-((4-oxo-1-phenyl-3-(2-propenyl)-1,3,8-triazaspiro(4.5)dec-8-yl)methyl)-, methyl ester], the IC50 in test [1] (setting [3]) worked out at 11 nM. For `C=CCN1CN(c2ccccc2)C2(CCN(CC3COc4ccc5c(cc(C(=O)OC)n5CC=C)c4O3)CC2)C1=O` (stereo not shown) [XIo, 7H-1,4-Dioxino(2,3-e)indole-8-carboxylic acid, 2,3-dihydro-2-((4-oxo-1-phenyl-3-(2-propenyl)-1,3,8-triazaspiro(4.5)dec-8-yl)methyl)-7-(2-propenyl)-, methyl ester], the IC50 turned out to be 280 nM in test [1] (setting [3]) and 97.3 nM against dopamine D2 receptors.

Source of the values: patent publication US5302599A, “Therapeutically useful heterocyclic indole compounds” (The Upjohn Company, priority 1992, dated 1994).
